Measurements: patent publication US8865910B2 (priority 2010, dated 2014)
Read-outs that look alike come from different tables or passages of the source.

Columns and labels:
M. tuberculosis H37Rv = details: BACTEC 12B medium; cited from earlier work
dormant tubercle bacilli = details: cited from earlier work
M. tuberculosis = experiment: Antitubercular activity against active and dormant bacilli of M. tuberculosis; format: cell-based, Mycobacterium tuberculosis H37Ra
M. bovis BCG = experiment: microbe, parasite or virus in culture; format: cell-based, Mycobacterium bovis BCG; details: for inhibition at 100 µg/mL: Mycobacterium tuberculosis variant bovis BCG, BCG, 192 h
[1] = read-out: Antimycobacterial activity % inhibition at 100 μg/ml Aerobic/Active stage
[2] = read-out: Antimycobacterial activity % inhibition at 100 μg/ml Anearobic/Dormant stage

## O=[N+]([O-])c1ccc(CSc2nnc(-c3ccc([N+](=O)[O-])o3)s2)cc1 [2-(5-nitro-2furyl)-5-(4-nitrobenzyl)thio-1,3,4-thiadiazole]
M. tuberculosis H37Rv
  inhibition effects in the primary screening: 90%

## OC(Cn1cncn1)(Cn1cncn1)c1ccc(F)cc1F [Fluconazole]
Dormant tubercle bacilli
  Effectiveness against dormant tubercle bacilli: not effective

## CC(C)(C)C(O)(CCc1ccc(Cl)cc1)Cn1cncn1 (stereo not shown) [tebuconazole]
Dormant tubercle bacilli
  Effectiveness against dormant tubercle bacilli: not effective

## C#CCSc1nnc(-c2ccc([N+](=O)[O-])o2)s1 [2-(5-nitro-2-furyl)-5-(2-propynyl)thio-1,3,4-thiadiazole]
M. tuberculosis H37Rv
  inhibition effects in the primary screening: 90%

## CCCSc1nnc(-c2ncc([N+](=O)[O-])n2C)s1 [2-(1-Methyl-5-nitro-1H-imidazol-2-yl)-5-(n-propyl)thio-1,3,4-thiadiazole]
M. tuberculosis H37Rv
  inhibition effects in the primary screening: 90%

## C=CCSc1n[nH]c(-c2ccc(Cl)cc2)n1 [compound 4f, 3-(allylthio)-5-(4-chlorophenyl)-1H-1,2,4-triazole]
M. tuberculosis
  Effectiveness against active and dormant stage of the bacilli: effective against both active as well as dormant stage
M. bovis BCG; M. bovis BCG, active and dormant stage
  Effectiveness against active and dormant stage of the bacilli: effective against both active as well as dormant stage
M. bovis BCG; [1]
  inhibition at 100 µg/mL: 98%
M. bovis BCG; [2]
  inhibition at 100 µg/mL: 91%

## O=[N+]([O-])c1ccc(-c2nnc(SCc3ccccc3[N+](=O)[O-])s2)o1 [2-(5-nitro-2-furyl)-5-(2-nitrobenzyl)thio-1,3,4-thiadiazole]
M. tuberculosis H37Rv
  inhibition effects in the primary screening: 90%

## O=[N+]([O-])c1cccc(CSc2nnc(-c3ccc([N+](=O)[O-])o3)s2)c1 [2-(5-nitro-2-furyl)-5-(3-nitrobenzyl)thio-1,3,4-thiadiazole]
M. tuberculosis H37Rv
  inhibition effects in the primary screening: 90%

## Clc1ccc(-c2nc(SCc3cn(Cc4ccccc4)nn3)n(Cc3cn(Cc4ccccc4)nn3)n2)cc1 [3f, 1-benzyl-4-((1-((1-benzyl-1H-1,2,3-triazol-4-yl)methyl)-3-(4-chlorophenyl)-1H-1,2,4-triazol-5-ylthio)methyl)-1H-1,2,3-triazole]
M. bovis BCG; [1]
  inhibition at 100 µg/mL: 31%
M. bovis BCG; [2]
  inhibition at 100 µg/mL: 4%
